Test results from PubChem BioAssay AID1259411 (Chemical Carcinogenesis Research Information System (CCRIS), 2018).
The source made the active and inactive calls. No rule for the calls is given here.

System: rodent carcinogenicity bioassays, tumor incidence
Assay: CCRIS carcinogenicity studies
Summary of the method: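 Archive of carcinogenicity, mutagenicity, tumor promotion and tumor inhibition results drawn from journals, NCI reports and other sources, expert-reviewed; covers 1985-2011 and is no longer updated.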

Question: With `CC1CN(N=O)CC(C)O1` (configuration not stated) as the compound, how does the carcinogen call (Species: FISH, Strain/Sex: SHASTA RAINBOW TROUT/MALE, FEMALE, Route: ORAL, Dose: 0, 1556 PPM IN DIET FOR 18 MO (STUDY DURATION: 18 MO), Tumor Site: Type of Lesion: LIVER: CARCINOMA, STOMACH: PAPILLOMA) read?
Answer: active; positive

Question: What about the carcinogen call (Species: HAMSTER, Strain/Sex: EUROPEAN/FEMALE, Route: GAVAGE, Dose: 0, 37 MG/KG 1/WK FOR DURATION OF STUDY (STUDY DURATION: LIFETIME), Tumor Site: Type of Lesion: NASAL CAVITY: TUMOR, TRACHEA: TUMOR, LIVER: HEMANGIOENDOTHELIOMA, Tumor Site: Type of Lesion: NASAL CAVITY: TUMOR, TRACHEA: TUMOR, LIVER: HEMANGIOENDOTHELIOMA) of the same compound?
Answer: active; positive

Question: What about the carcinogen call (Species: HAMSTER, Strain/Sex: EUROPEAN/FEMALE, Route: GAVAGE, Dose: 0, 112 MG/KG 1/WK FOR DURATION OF STUDY (STUDY DURATION: LIFETIME), Tumor Site: Type of Lesion: NASAL CAVITY: TUMOR, TRACHEA: TUMOR, LUNG: TUMOR, Tumor Site: Type of Lesion: NASAL CAVITY: TUMOR, TRACHEA: TUMOR, LUNG: TUMOR) of the same compound?
Answer: active; positive

Question: And the carcinogen call (Species: HAMSTER, Strain/Sex: EUROPEAN/FEMALE, Route: SUBCUTANEOUS, Dose: 0, 85 MG/KG 1/WK FOR DURATION OF STUDY (STUDY DURATION: LIFETIME), Tumor Site: Type of Lesion: NASAL CAVITY: TUMOR, LARYNX: TUMOR, TRACHEA: TUMOR, LUNG: TUMOR, Tumor Site: Type of Lesion: NASAL CAVITY: TUMOR, LARYNX: TUMOR, TRACHEA: TUMOR, LUNG: TUMOR)?
Answer: active; positive

Question: And the carcinogen call (Species: HAMSTER, Strain/Sex: EUROPEAN/MALE, Route: GAVAGE, Dose: 0, 37 MG/KG 1/WK FOR DURATION OF STUDY (STUDY DURATION: LIFETIME), Tumor Site: Type of Lesion: NASAL CAVITY: TUMOR, LIVER: HEMANGIOENDOTHELIOMA)?
Answer: active; positive

Question: And the carcinogen call (Species: HAMSTER, Strain/Sex: EUROPEAN/MALE, Route: GAVAGE, Dose: 0, 112 MG/KG 1/WK FOR DURATION OF STUDY (STUDY DURATION: LIFETIME), Tumor Site: Type of Lesion: NASAL CAVITY: TUMOR, LUNG: TUMOR)?
Answer: active; positive

Question: And the carcinogen call (Species: HAMSTER, Strain/Sex: EUROPEAN/MALE, Route: SUBCUTANEOUS, Dose: 0, 85 MG/KG 1/WK FOR DURATION OF STUDY (STUDY DURATION: LIFETIME), Tumor Site: Type of Lesion: NASAL CAVITY: TUMOR, LARYNX: TUMOR, TRACHEA: TUMOR, LUNG: TUMOR, Tumor Site: Type of Lesion: NASAL CAVITY: TUMOR, LARYNX: TUMOR, TRACHEA: TUMOR, LUNG: TUMOR)?
Answer: active; positive

Question: And the carcinogen call (Species: HAMSTER, Strain/Sex: SYRIAN/MALE,FEMALE, Route: GAVAGE, Dose: 9-74 MG/KG 1/WK FOR LIFE, Tumor Site: Type of Lesion: PANCREAS, TRACHEA, LUNG, LIVER, NASAL CAVITY, FORESTOMACH, GALL BLADDER, LARYNX, Tumor Site: Type of Lesion: PANCREAS, TRACHEA, LUNG, LIVER, NASAL CAVITY, FORESTOMACH, GALL BLADDER, LARYNX)?
Answer: active; positive

Question: What about the carcinogen call (Species: HAMSTER, Strain/Sex: SYRIAN/MALE,FEMALE, Route: SUBCUTANEOUS, Dose: 8, 16, 32 MG/KG 1/WK FOR LIFE, Dose: 8, 16, 32 MG/KG 1/WK FOR LIFE, Tumor Site: Type of Lesion: NASAL CAVITY, LARYNX, TRACHEA, LUNG, FORESTOMACH, PANCREAS, VAGINA, Tumor Site: Type of Lesion: NASAL CAVITY, LARYNX, TRACHEA, LUNG, FORESTOMACH, PANCREAS, VAGINA) of the same compound?
Answer: active; positive

Question: And the carcinogen call (Species: RAT, Strain/Sex: F344/FEMALE, Route: INTRAVESICULAR, Dose: 0, 6 MG IN 0.2 ML ETHANOL: DEIONIZED WATER (1:3) 2/WK FOR 18 WK (TOTAL DOSE 1.5 MMOL) (STUDY DURATION: LIFESPAN), Tumor Site: Type of Lesion: ESOPHAGUS: TUMOR)?
Answer: active; positive

Question: And the carcinogen call (Species: RAT, Strain/Sex: F344/FEMALE, Route: ORAL, Dose: 20 MG/L IN DRINKING WATER FOR 30 WK, Tumor Site: Type of Lesion: ESOPHAGUS: PAPILLOMA, CARCINOMA, TONGUE: PAPILLOMA, CARCINOMA)?
Answer: active; positive

Question: What about the carcinogen call (Species: RAT, Strain/Sex: F344/FEMALE, Route: ORAL, Dose: 50 MG/L IN DRINKING WATER FOR 22 WK, Tumor Site: Type of Lesion: ESOPHAGUS: PAPILLOMA, CARCINOMA) of the same compound?
Answer: active; positive

Question: And the carcinogen call (Species: RAT, Strain/Sex: SPRAGUE-DAWLEY/MALE,FEMALE, Route: SUBCUTANEOUS, Dose: 0, 1/100, 1/10 OF LD50 1/WK FOR LIFE (STUDY DURATION: LIFETIME), Dose: 0, 1/100, 1/10 OF LD50 1/WK FOR LIFE (STUDY DURATION: LIFETIME), Tumor Site: Type of Lesion: ESOPHAGUS: CARCINOMA)?
Answer: active; positive

Question: What about the carcinogen call (Species: RAT, Strain/Sex: SPRAGUE-DAWLEY/MALE,FEMALE, Route: SUBCUTANEOUS, Dose: 0, 1/100, 1/10 OF LD50 1/WK FOR LIFE TO RATS WITH ESOPHAGOJEJUNOSTOMY (STUDY DURATION: LIFETIME), Dose: 0, 1/100, 1/10 OF LD50 1/WK FOR LIFE TO RATS WITH ESOPHAGOJEJUNOSTOMY (STUDY DURATION: LIFETIME), Tumor Site: Type of Lesion: ESOPHAGUS: CARCINOMA) of the same compound?
Answer: active; positive

Question: And the carcinogen call (Species: RAT, Strain/Sex: SPRAGUE-DAWLEY/MALE, Route: ORAL, Dose: 50 MG/L IN DRINKING WATER (20 ML/D 5 D/WK) FOR 30 WK, Tumor Site: Type of Lesion: ESOPHAGUS: PAPILLOMA, SQUAMOUS CELL CARCINOMA, NASAL TURBINATES: ADENOCARCINOMA)?
Answer: active; positive

Question: How did the carcinogen call (Species: RAT, Strain/Sex: F344/MALE, Route: ORAL, Dose: 0, 1% IN DIET FOR 520 D (STUDY DURATION: 520 D), Tumor Site: Type of Lesion: URINARY BLADDER: CARCINOMA) turn out when `O=C1c2ccccc2C(=O)c2c(O)c(O)cc(O)c21` was run?
Answer: active; positive

Question: Which carcinogen call (Species: MOUSE, Strain/Sex: SWISS/FEMALE, Route: SUBCUTANEOUS, Dose: IN OLIVE OIL 1/MO FOR 3 MO FOR A TOTAL DOSE OF 0, 1.5 MG (STUDY DURATION: 395 D), Tumor Site: Type of Lesion: INJECTION SITE: FIBROBLASTIC SARCOMA) does the source give for `[2H]c1c([2H])c([2H])c2c(C([2H])([2H])[2H])c3c(c([2H])c([2H])c4c([2H])c([2H])c([2H])c([2H])c43)c(C([2H])([2H])[2H])c2c1[2H]` here?
Answer: active; positive

Question: What about the carcinogen call (Species: MOUSE, Strain/Sex: SWISS/MALE, Route: SUBCUTANEOUS, Dose: IN OLIVE OIL 1/MO FOR 3 MO FOR A TOTAL DOSE OF 0, 1.5 MG (STUDY DURATION: 395 D), Tumor Site: Type of Lesion: INJECTION SITE: FIBROBLASTIC SARCOMA) of the same compound?
Answer: active; positive

Question: `CC(=O)Nc1ccc(/C=C/c2ccccc2)cc1` was tested. Which carcinogen call (Species: RAT, Strain/Sex: HOLTZMAN/MALE, Route: ORAL, Dose: 0, 0.0046% IN DIET FOR WK 0-13 (STUDY DURATION: 40 WK), Tumor Site: Type of Lesion: EAR DUCT GLAND: CARCINOMA) did it give?
Answer: active; positive

Question: With `CCCCCCCCCCCCN(C)N=O` as the compound, how does the carcinogen call (Species: RAT, Strain/Sex: F344/MALE, Route: GAVAGE, Dose: 60 MG/ML IN CORN OIL 2/WK FOR 30 WK, STUDY DURATION: 112 WK, Tumor Site: Type of Lesion: LUNG: ADENOCARCINOMA, FORESTOMACH: CARCINOMA, BLADDER, Tumor Site: Type of Lesion: LUNG: ADENOCARCINOMA, FORESTOMACH: CARCINOMA, BLADDER) read?
Answer: active; positive

Question: `CCC(=O)C(CC(C)N(C)C)(c1ccccc1)c1ccccc1` (configuration not stated) was tested. Which carcinogen call (Species: MOUSE, Strain/Sex: B6C3F1/FEMALE, Route: ORAL, Dose: 0, 15, 60 MG/KG IN DIET FOR DURATION OF STUDY (STUDY DURATION: 108 WK), Dose: 0, 15, 60 MG/KG IN DIET FOR DURATION OF STUDY (STUDY DURATION: 108 WK)) did it give?
Answer: inactive; negative

Question: And the carcinogen call (Species: MOUSE, Strain/Sex: B6C3F1/MALE, Route: ORAL, Dose: 0, 15, 60 MG/KG IN DIET FOR DURATION OF STUDY (STUDY DURATION: 108 WK), Dose: 0, 15, 60 MG/KG IN DIET FOR DURATION OF STUDY (STUDY DURATION: 108 WK))?
Answer: inactive; negative

Question: What about the carcinogen call (Species: RAT, Strain/Sex: F344/FEMALE, Route: ORAL, Dose: 0, 28, 88 MG/KG IN DIET FOR DURATION OF STUDY (STUDY DURATION: 108 WK), Dose: 0, 28, 88 MG/KG IN DIET FOR DURATION OF STUDY (STUDY DURATION: 108 WK)) of the same compound?
Answer: inactive; negative

Question: And the carcinogen call (Species: RAT, Strain/Sex: F344/MALE, Route: ORAL, Dose: 0, 16, 46 MG/KG IN DIET FOR DURATION OF STUDY (STUDY DURATION: 108 WK), Dose: 0, 16, 46 MG/KG IN DIET FOR DURATION OF STUDY (STUDY DURATION: 108 WK))?
Answer: inactive; negative

Question: `Cc1cc(NS(=O)(=O)c2ccc(N)cc2)no1` was tested. Which carcinogen call (Species: RAT, Strain/Sex: CD-1/MALE,FEMALE, Route: ORAL, Dose: 25, 50, 150, 300, 600 MG/KG/D IN DIET FOR 60 WK, Dose: 25, 50, 150, 300, 600 MG/KG/D IN DIET FOR 60 WK, Tumor Site: Type of Lesion: THYROID GLAND: ADENOMA OR NODULES) did it give?
Answer: active; positive

Question: What does the source list for `Cn1cc(OCC(O)CNC(C)(C)C)c2ccccc2c1=O` (configuration not stated)?
Answer: carcinogen call (Species: MOUSE, Strain/Sex: CD-1/FEMALE, Route: GAVAGE, Dose: 0, 3, 10, 30 MG/KG/D FOR 80 WK IN WATER (STUDY DURATION: 80 WK), Dose: 0, 3, 10, 30 MG/KG/D FOR 80 WK IN WATER (STUDY DURATION: 80 WK)): inactive; negative; carcinogen call (Species: MOUSE, Strain/Sex: CD-1/MALE, Route: GAVAGE, Dose: 0, 3, 10, 30 MG/KG/D FOR 80 WK IN WATER (STUDY DURATION: 80 WK), Dose: 0, 3, 10, 30 MG/KG/D FOR 80 WK IN WATER (STUDY DURATION: 80 WK)): inactive; negative
